Measured values published in US8742082B2, “Compositions and methods for influencing satiety, lipid metabolism, and fat utilization” (Nestec S.A., priority 2008, dated 2014).

How the values were obtained:
[1] = system: AcylCoA oxidase (ACO); test: Real-time PCR gene expression in peripheral tissues: ACO; format: in vivo; settings: liver; C57bl6j mice, high fat diet, 100 mg/kg/body weight in diet, 5 weeks
Procedure: (§1) The expression of 45 genes was measured by real-time PCR in peripheral tissues to identify genes that were differentially expressed in response to oral administration of oleoylethanolamide (OEA) or a non-hydrolysable OEA analog (KDS 5104), which affect satiety, lipid metabolism, fat utilization, food intake, and body fat mass.
(§2) Animals, diet, and experimental design. Adult male C57bl6j mice purchased at 8 weeks of age were individually housed and maintained ad libitum on high fat diet and water for 2 weeks. Seven mice were randomly allocated in 3 groups and fed with a high fat diet (lipids represented 50% of daily energy) for 2 weeks. […]
(§3) RNA extraction and gene expression. […] The RNA concentration was determined on nanodrop from the absorbance at 260 nm. […] Real-time quantitative PCR (RT-qPCR) were performed on cDNA obtained as described above using a high through put system (Biomek 3000, Beckman & Coulter, Fullerton, USA) and a Lightcycler 480 (Roche/Hitachi, Basel, Switzerland) with SYBR Green Master mix+kit (Eurogentec, Philadelphia, USA). […] Values were expressed as ratio of RNA levels relative to control mice (diets with 0 mg of OEA/kg/body weight) using ΔΔ(Ct) (Livak K J & Schmittgen T D, 2001, Methods 25:402-8). Gene expression of the following genes was measured (abbreviation and GenBank Accession shown in parentheses). […]

[2] = system: Fatty acid amide hydrolase (FAAH); test: Real-time PCR gene expression in peripheral tissues: FAAH; format: in vivo; settings: C57bl6j mice, high fat diet, 100 mg/kg/body weight in diet, 5 weeks
Procedure: as §1
(§4) Animals, diet, and experimental design. Adult male C57bl6j mice purchased at 8 weeks of age were individually housed and maintained ad libitum on high fat diet and water for 2 weeks. Seven mice were randomly allocated in 3 groups and fed with a high fat diet (lipids represented 50% of daily energy) for 2 weeks. For one kilogram, the composition of the high fat diet was: 235 g casein, 201 g saccharose, 3.5 g L-cystine, 85 g starch, 116 g maltodextrin, 60 g cellulose, 12 g vitamins mix (AIN-93M, UPAE, Jouy-en-Josas, France), 51.5 g mineral mix (AIN-93Vx, UPAE, Jouy-en-Josas, France), and 236 g lard. Then, either OEA or KDS 5104 was added to the diet at a concentration of 100 mg/kg/body weight. The mice were kept under treatment for 5 weeks.
(§5) Sampling. At the end of the experimental period, mice were sacrificed by blood drawing (cardiac puncture) after anesthesia with isoflurane. Plasma was obtained by centrifugation (1,000 g for 10 min at 4° C.). Mesenteric, epididymal, inguinal and peritoneal adipose depots, as well as liver, stomach, small intestine mucosa, pancreas, and gastrocnemian muscle were removed and frozen into liquid nitrogen. Plasma, urine, feces, and organ samples were kept at −80° C. until analysis.
(§6) RNA extraction and gene expression. Total RNA from liver, intestine mucous membrane, adipose tissues, gastrocnemian muscle, pancreas and stomach were extracted with TRIzol reagent (Invitrogen, Carlsbad, USA) according to the manufacturer's instruction. The RNA concentration was determined on nanodrop from the absorbance at 260 nm. Retro-transcription PCRs to synthesize cDNA were performed using an Applied Biosystem Thermal Cycler 2720 and Superscript II (Invitrogen, Carlsbad, USA) according to manufacturer's protocol. Real-time quantitative PCR (RT-qPCR) were performed on cDNA obtained as described above using a high through put system (Biomek 3000, Beckman & Coulter, Fullerton, USA) and a Lightcycler 480 (Roche/Hitachi, Basel, Switzerland) with SYBR Green Master mix+kit (Eurogentec, Philadelphia, USA). Primers for the selected genes were generated using online informatics assistance from the Lightcycler manufacturer (Roche). Databases used to identify the genes were (1) the NCBI database (GenBank) and (2) the IHOP (Information Hyperlinked over Protein) database (www.ihop-net.org/UniPub/iHOP/bng/). Values were expressed as ratio of RNA levels relative to control mice (diets with 0 mg of OEA/kg/body weight) using ΔΔ(Ct) (Livak K J & Schmittgen T D, 2001, Methods 25:402-8). Gene expression of the following genes was measured (abbreviation and GenBank Accession shown in parentheses).
(§7) Statistical analysis. […] Statistical analysis of physiological parameters and gene expression data was performed by one-way ANOVA on Statview software (SAS Institute, Cary, USA). Daily food intake was analyzed using two-way ANOVA on Statview software. Statistical significance was set up at the P<0.05 level, the P<0.01 level and the P<0.001 level. For statistical analysis of the gene expression data, values were calculated relative to 18S expression for each mouse and gene.

[3] = system: Fasting induced adipocyte factor (Fiaf); test: Real-time PCR gene expression in peripheral tissues: Fiaf; format: in vivo; settings: C57bl6j mice, high fat diet, 100 mg/kg/body weight in diet, 5 weeks
Procedure: as §1, §4, §5, §6, §7

[4] = system: Phosphoenolpyruvate carboxykinase (PEP CK); test: Real-time PCR gene expression in peripheral tissues: PepCK; format: in vivo; settings: liver; C57bl6j mice, high fat diet, 100 mg/kg/body weight in diet, 5 weeks
Procedure: as §1, §2, §3

[5] = system: Cholescystokinin (CCK); test: Real-time PCR gene expression in peripheral tissues: CCK; format: in vivo; settings: proximal intestine; C57bl6j mice, high fat diet, 100 mg/kg/body weight in diet, 5 weeks
Procedure: as §1, §2, §3

[6] = molecular target: T1, PPAR α (Mus musculus, UniProt P23204); settings: wild-type and PPAR α (−/−) mice; cited from earlier work
T1 construct: host or cells: wild-type mice (endogenous protein)
T1 sequence (P23204 whole entry): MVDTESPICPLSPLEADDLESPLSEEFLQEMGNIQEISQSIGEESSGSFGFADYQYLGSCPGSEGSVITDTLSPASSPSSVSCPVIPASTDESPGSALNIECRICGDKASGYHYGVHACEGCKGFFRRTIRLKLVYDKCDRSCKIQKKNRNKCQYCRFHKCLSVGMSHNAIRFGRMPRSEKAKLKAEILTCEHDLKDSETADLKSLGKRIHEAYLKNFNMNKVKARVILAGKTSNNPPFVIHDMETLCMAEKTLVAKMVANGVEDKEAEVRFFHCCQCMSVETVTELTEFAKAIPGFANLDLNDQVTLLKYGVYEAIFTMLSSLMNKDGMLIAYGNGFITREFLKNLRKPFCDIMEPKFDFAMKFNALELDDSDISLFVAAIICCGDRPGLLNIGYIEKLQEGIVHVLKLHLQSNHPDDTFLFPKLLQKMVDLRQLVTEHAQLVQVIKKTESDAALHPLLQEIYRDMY

[7] = system: Peroxisome proliferator activated receptor alpha (PPAR α); test: Real-time PCR gene expression in peripheral tissues: PPAR α; format: in vivo; settings: proximal intestine; C57bl6j mice, high fat diet, 100 mg/kg/body weight in diet, 5 weeks
Procedure: as §1, §2, §3

[8] = system: Oleoylethanolamide synthase (OEA synthase); test: Real-time PCR gene expression in peripheral tissues: OEA synthase; format: in vivo; settings: proximal intestine; C57bl6j mice, high fat diet, 100 mg/kg/body weight in diet, 5 weeks
Procedure: as §1, §2, §3

[9] = system: Uncoupling protein 2 (UCP2); test: Real-time PCR gene expression in peripheral tissues: UCP2; format: in vivo; settings: muscle; C57bl6j mice, high fat diet, 100 mg/kg/body weight in diet, 5 weeks
Procedure: as §1, §2, §3

[10] = Chronic oral OEA in high fat diet: food intake; format: in vivo; settings: C3H mice, 4 weeks
Text: The physiological and biochemical effects of chronic oral OEA administration were investigated. Mice were chronically fed with OEA, provided as a supplement during 4 weeks, to study the effect on body weight gain and cumulative food intake, among other parameters.
Animals, diet and experimental design. Adult male C3H mice purchased at 8 weeks of age were individually housed and maintained ad libitum on different diets and water for 2 weeks. Seven mice were allocated in 3 groups by randomization by weight, and fed with a high fat diet (lipids represented 50% of daily energy) during 2 weeks. The composition of the high fat diet per kg was: 284.5 g of corn starch, 89.5 g of saccharose, 250 g of casein, 50 g of cellulose, 10 g of a mix of vitamins (V1001), 35 g of a mix of minerals (S10026) and 281 g of canola oil (UPAE, Jouy en Josas, France). Then, OEA was added to the diets at different levels to provide 0, 10, or 100 mg OEA/kg body weight. The mice were kept on each respective diet for 4 weeks. During the nutritional intervention, daily food intake was monitored and the mice were weighed 3 times a week.
Statistical analysis. Results were determined as mean±standard error of the mean (SEM). Statistical analysis of physiological parameters was performed by one-way ANOVA on Statview software (SAS institute, Cary, USA). Statistical significance was set up at the P<0.05 level.

[11] = cited from earlier work
[12] = system: Ghrelin; test: Real-time PCR gene expression in peripheral tissues: ghrelin; format: in vivo; settings: stomach; C57bl6j mice, high fat diet, 100 mg/kg/body weight in diet, 5 weeks
Procedure: as §1, §2, §3

[13] = rodents, intraperitoneal administration

CCCCCCCC/C=C\CCCCCCCC(=O)NCCO [OEA, N-oleoyl-ethanolamide]
ACO l, ratio of RNA levels relative to control mice [1]: 1.06
FAAH at ep, ratio of RNA levels relative to control mice ([2]; epidydimal adipose tissue): 2.22
FAAH at per, ratio of RNA levels relative to control mice ([2]; peritoneal adipose tissue): 1.62
FAAH i, ratio of RNA levels relative to control mice ([2]; proximal intestine): 1.68
Fiaf at ep, ratio of RNA levels relative to control mice ([3]; epidydimal adipose tissue): −1.41
Fiaf at per, ratio of RNA levels relative to control mice ([3]; peritoneal adipose tissue): −2.42
Fiaf i, ratio of RNA levels relative to control mice ([3]; proximal intestine): 1.15
PepCK l, ratio of RNA levels relative to control mice [4]: 1.02
CCK i, ratio of RNA levels relative to control mice [5]: 1.57
food intake, wild-type vs PPAR α (−/−) mice [6]: regulates food intake in wild-type mice but not in PPAR α (−/−) mice
PPAR α i, ratio of RNA levels relative to control mice [7]: 1.20
OEA synthase i, ratio of RNA levels relative to control mice [8]: −1.38
UCP2 m, ratio of RNA levels relative to control mice [9]: 1.19
Dose dependence of the effect on food intake ([10]; 10 vs 100 mg/kg body weight): not dose dependent
Food intake, change in mice consuming OEA ([10]; high fat diet, OEA 10 or 100 mg/kg body weight in diet, P<0.05): −6.5%
food intake (meal size, first meal delay, meal intervals) ([11]; administrated intraperitoneally): reduced food intake
body fat gain [11, 13]: reduced body fat gain
satiety and lipid utilization [11, 13]: induce satiety and peripheral utilization of lipid substrate
ghrelin s, ratio of RNA levels relative to control mice [12]: 1.98
